Read-outs that look alike come from different tables or passages of the source. One block for each molecule: values may come before it.
Legend:
exploratory activity = experiment: Inhibitory effect on exploratory activity (Animex activity meter); assay type: in vivo, mice (Std-ddy strain); settings: oral, 2 h after administration, 3 min counting; dose not given
Method: A group of 5 male mice (Std-ddy strain, 20-25 g) was used. Two hours after oral administration of the test compound, mice were placed individually in a test box (23×35×30 cm) on Animex activity meter (Farad Co.). Immediately thereafter, activity counting was started and lasted for three minutes. The mean counts of the compound-treated group were compared with those of the corresponding control (non-dosed) group, and the percent inhibition was calculated.

serotonin (S2) receptor = target: T1, serotonin (S2) receptor (Rattus norvegicus, UniProt P14842); experiment: In vitro binding to serotonin (S2) receptor, [3H] ketanserin; set-up: species or system rats; settings: [3H] ketanserin, rat brain crude synaptosome fraction
T1 construct: Crude synaptosome fractions were prepared from some brain regions in rats for receptor sources; from tissue
T1 sequence (P14842 whole entry): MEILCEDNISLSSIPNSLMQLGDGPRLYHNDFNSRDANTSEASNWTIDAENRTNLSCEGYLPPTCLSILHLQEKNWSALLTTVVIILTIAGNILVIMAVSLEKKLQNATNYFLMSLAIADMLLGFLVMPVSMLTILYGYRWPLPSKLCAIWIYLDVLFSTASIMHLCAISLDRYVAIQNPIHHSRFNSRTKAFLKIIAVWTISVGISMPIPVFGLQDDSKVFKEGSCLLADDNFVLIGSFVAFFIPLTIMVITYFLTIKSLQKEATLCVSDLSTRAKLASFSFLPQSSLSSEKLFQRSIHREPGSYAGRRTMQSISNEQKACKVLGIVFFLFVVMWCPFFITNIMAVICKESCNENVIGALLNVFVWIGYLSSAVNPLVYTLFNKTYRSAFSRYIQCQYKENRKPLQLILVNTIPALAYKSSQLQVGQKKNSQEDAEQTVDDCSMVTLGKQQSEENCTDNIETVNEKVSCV
Method: (§1) Dopamine (D2), serotonin (S1, S2) and adrenaline (α1) receptor binding assays were carried out according to the methods of I. Creese et al. [Eur. J. Pharmacol., 46, 377 (1977), S. J. Peroutka et al. [Mol. Pharmacol. 16, 687 (1979)], J. E. Leysen et al. [Mol. Pharmacol., 21, 301 (1982)] and D. C. U'Prichard et al. [Mol. Pharmacol., 13, 454 (1977)], respectively.
(§2) Crude synaptosome fractions were prepared from some brain regions in rats for receptor sources. Radioactive ligands used were [^3 H] spiperone (D2), [^3 H] serotonin (S1), [^3 H] ketanserin (S2) and [^3 H] WB-4101 (α1). The binding assay was performed by incubating aliquots of synaptosome fraction in buffer solution (final volume: 1 ml) containing a [^3 H] labelled ligand and a test compound. The assay was terminated by rapid filtration through Whatman GF/B glass fiber filters attached to a cell-harvester (Brandel) and radioactivity on the filters was counted in a Packard Triscarb scintillation counter. Specific binding was calculated as a difference between amounts of radioactivity in the presence and absence of an unlabelled ligand [spiperone (D2), serotonin (S1), methysergide (S2) and prazosin (α1)]. The IC50 value of the test compounds (concentration causing 50% inhibition of [^3 H] ligand specific binding) was determined by probit analysis.

dopamine (D2) receptor = target: T2, dopamine (D2) receptor (Rattus norvegicus, UniProt P61169); experiment: In vitro binding to dopamine (D2) receptor, [3H] spiperone; set-up: species or system rats; settings: [3H] spiperone, rat brain crude synaptosome fraction; read-out: IC50 D2
T2 construct: Crude synaptosome fractions were prepared from some brain regions in rats for receptor sources; from tissue
T2 sequence (P61169 whole entry): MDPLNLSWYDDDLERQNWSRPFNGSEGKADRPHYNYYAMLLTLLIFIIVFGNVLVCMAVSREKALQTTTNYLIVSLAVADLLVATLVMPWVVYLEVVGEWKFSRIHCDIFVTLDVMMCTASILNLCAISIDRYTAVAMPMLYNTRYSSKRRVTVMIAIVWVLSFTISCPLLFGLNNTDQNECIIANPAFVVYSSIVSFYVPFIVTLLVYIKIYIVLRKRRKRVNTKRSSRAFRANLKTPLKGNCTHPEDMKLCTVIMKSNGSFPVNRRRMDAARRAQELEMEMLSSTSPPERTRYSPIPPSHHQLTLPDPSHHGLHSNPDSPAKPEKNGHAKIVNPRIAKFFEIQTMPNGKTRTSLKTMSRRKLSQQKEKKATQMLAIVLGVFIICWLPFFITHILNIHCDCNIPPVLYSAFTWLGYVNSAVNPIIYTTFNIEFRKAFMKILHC
Method: as §1, §2

adrenaline (α1) receptor = experiment: In vitro binding to adrenaline (α1) receptor, [3H] WB-4101; set-up: species or system rats; settings: [3H] WB-4101, rat brain crude synaptosome fraction
Method: as §1, §2

[1] = test system: apomorphine-induced vomiting; experiment: Antagonistic effect on apomorphine-induced vomiting; assay type: in vivo, dogs (Beagle); settings: Canis lupus familiaris, sc, apomorphine 0.3 mg/kg s.c. 2 h after compound, read-out: Inhibitory ratio (apomorphine-induced vomiting)
Method: A group of 3-4 dogs (Beagle, 8-15 kg) was used for examining effects on the test compounds on apomorphine-induced vomiting, a known test for evaluating neuroleptic drugs.
Each dog was given a subcutaneous injection of apomorphine hydrochloride (0.3 mg/kg) two hours after the treatment of the test compounds. Then, the frequency of oral vomiting was counted for one hour. The mean counts of the compound-treated group were compared with those of the corresponding control (non-dosed) group, and the percent inhibition was calculated.

[2] = test system: brain monoamine metabolites; experiment: Increasing effect on concentration of brain monoamine metabolites; assay type: in vivo, mice (Std-ddy strain); settings: Mus musculus, 2 h, non-dosed=100
Method: A group of 5 male mice (Std-ddy strain, 25-30 g) was used for examining effect of the test compounds on concentration of brain monoamine metabolites.
Mice were killed by decapitation 2 hours after treatment with the test compounds. Brains were quickly taken out, homogenized in 1N formic acid-acetone solution, and centrifuged in a refrigerated ultracentrifuge. The supernatant was evaporated by blowing with N2 gas. Then, the residue was again resolved in 0.01 N acetic acid, and served for determining concentration of dopamine metabolites, 3,4-dihydroxyphenylacetic acid (DOPAC) and homovanillic acid (HVA), a norepinephrine metabolite, 3-methyl-4-hydroxyphenylethylene glycol (MOPEG), and a serotonin metabolite, 5-hydroxyindole-3-acetic acid (5-HIAA) concentrations by HPLC with electrochemical detection. The effect of the test compounds on concentration of each monoamine metabolite is shown as % of control (level of non-dosed animals=100) in Table 4.

[3] = read-out: 5-HIAA concentration, % of control
[4] = read-out: DOPAC concentration, % of control
[5] = read-out: HVA concentration, % of control

SMILES: CCCN1CCN(c2cc(-c3ccc(F)cc3F)c3c(n2)CCCCCC3)CC1 [Example 127, 2-(4-n-propyl-1-piperazinyl)-4-(2,4-difluorophenyl)-5,6,7,8,9,10-hexahydrocycloocta[b]pyridine]
- Inhibitory ratio (exploratory activity) (exploratory activity): 80.3%

SMILES: CCN1CCN(c2cc(-c3ccccc3)c3c(n2)CCC(C)C3)CC1 (stereo not shown) [Example 57]
- Inhibitory ratio (exploratory activity) (exploratory activity): 77.2%

SMILES: Fc1ccc(-c2cc(N3CCN(C4CCCC4)CC3)nc3c2CCCCCC3)cc1 [Example 38]
- Inhibitory ratio (exploratory activity) (exploratory activity): 58.9%

SMILES: CCN1CCN(c2cc(-c3ccccc3)c3c(n2)C2CCC3C2)CC1 (stereo not shown) [Example 71]
- IC50 (serotonin (S2) receptor): 14 nM
- IC50 (dopamine (D2) receptor): 25 nM
- Inhibitory ratio (exploratory activity) (exploratory activity): 61.9%
- IC50 (adrenaline (α1) receptor): 13 nM
- inhibition in vivo at 3 mg/kg [1]: 84%

SMILES: CCN1CCN(c2cc(-c3ccc(F)cc3)c3c(n2)CCCCCC3)CC1 [Example 1b, 2-(4-ethyl-1-piperazinyl)-4-(4-fluorophenyl)-5,6,7,8,9,10-hexahydrocycloocta[b]pyridine]
- IC50 (serotonin (S2) receptor): 7 nM
- IC50 (dopamine (D2) receptor): 46 nM
- Inhibitory ratio (exploratory activity) (exploratory activity): 83.7%
- response vs control in vivo at 1 mg/kg [2, 3]: 102%
- response vs control in vivo at 1 mg/kg [2, 4]: 235%
- response vs control in vivo at 1 mg/kg [2, 5]: 212%
- response vs control in vivo at 1 mg/kg ([2]; read-out: MOPEG concentration, % of control): 118%
- IC50 (adrenaline (α1) receptor): 92 nM
- inhibition in vivo at 0.3 mg/kg ([1]; dose 0.3 mg/kg): 88%

SMILES: OCCN1CCN(c2cc(-c3ccc(F)cc3)c3c(n2)CCC3)CC1 [Example 7, 2-[4-(2-Hydroxyethyl)-1-piperazinyl]-4-(4-fluoro-phenyl)-6,7-dihydro-5H-1-pyrindine]
- IC50 (serotonin (S2) receptor): 9.5 nM
- IC50 (dopamine (D2) receptor): 30 nM
- inhibition in vivo at 1 mg/kg [1]: 80%

SMILES: CC1CN(c2cc(-c3ccc(F)cc3)c3c(n2)CCCCCC3)CCN1 (stereo not shown) [Example 83, 2-(3-Methyl-1-piperazinyl)-4-(4-fluorophenyl)-5,6,7,8,9,10-hexahydrocycloocta[b]pyridine]
- Inhibitory ratio (exploratory activity) (exploratory activity): 53.5%

SMILES: CN1CCN(c2cc(-c3ccc(F)cc3F)c3c(n2)CCCCCC3)CC1 [Example 114, 2-(4-Methyl-1-piperazinyl)-4-(2,4-difluorophenyl)-5,6,7,8,9,10-hexahydrocycloocta[b]pyridine]
- Inhibitory ratio (exploratory activity) (exploratory activity): 81.9%
- inhibition in vivo at 0.2 mg/kg [1]: 89%

SMILES: c1ccc(-c2cc(N3CCNCC3)nc3c2CCCCCC3)cc1 [Example 103]
- IC50 (serotonin (S2) receptor): 41 nM
- IC50 (dopamine (D2) receptor): 140 nM

SMILES: CCN1CCN(c2cc(-c3ccccc3)c3c(n2)CCCCCC3)CC1 [Example 36]
- Inhibitory ratio (exploratory activity) (exploratory activity): 68.4%
- inhibition in vivo at 0.5 mg/kg [1]: 81%

SMILES: CCCCN1CCN(c2cc(-c3ccc(F)cc3)c3c(n2)CCCCCC3)CC1 [Example 122, 2-(4-n-Butyl-1-piperazinyl)-4-(4-fluorophenyl)-5,6,7,8,9,10-hexahydrocycloocta[b]pyridine]
- Inhibitory ratio (exploratory activity) (exploratory activity): 81.3%
- response vs control in vivo at 2 mg/kg [2, 3]: 100%
- response vs control in vivo at 2 mg/kg [2, 4]: 306%
- response vs control in vivo at 2 mg/kg [2, 5]: 229%
- inhibition in vivo at 0.5 mg/kg [1]: 100%

SMILES: CN1CCN(c2cc(-c3ccc(F)cc3)c3c(n2)CCCCCC3)CC1.O=C(O)/C=C\C(=O)O.O=C(O)/C=C\C(=O)O [Example 112, 2-(4-Methyl-1-piperazinyl)-4-(4-fluorophenyl)-5,6,7,8,9,10-hexahydrocycloocta[b]pyridine dimaleate]
- Inhibitory ratio (exploratory activity) (exploratory activity): 73.2%
- inhibition in vivo at 0.2 mg/kg [1]: 94%

SMILES: CCN1CCN(c2cc(-c3ccc(F)cc3F)c3c(n2)CCCCCC3)CC1 [Example 2a, 2-(4-ethyl-1-piperazinyl)-4-(2,4-difluorophenyl)-5,6,7,8,9,10-hexahydrocycloocta[b] pyridine]
- IC50 (serotonin (S2) receptor): 28 nM
- IC50 (dopamine (D2) receptor): 24 nM
- Inhibitory ratio (exploratory activity) (exploratory activity): 77.5%
- IC50 (adrenaline (α1) receptor): 88 nM

SMILES: CCCCCN1CCN(c2cc(-c3ccc(F)cc3)c3c(n2)CCCCCC3)CC1 [Example 123, 2-(4-n-Pentyl-1-piperazinyl)-4-(4-fluorophenyl)-5,6,7,8,9,10-hexahydrocycloocta[b]pyridine]
- Inhibitory ratio (exploratory activity) (exploratory activity): 72.2%

SMILES: CCN1CCN(c2cc(-c3ccc(F)cc3)c3c(n2)C2CCC3CC2)CC1 [Example 75]
- Inhibitory ratio (exploratory activity) (exploratory activity): 78.9%

SMILES: CN1CCN(c2cc(-c3ccc(F)cc3)c3c(n2)CCC3)CC1 [Example 111, 2-(4-methyl-1-piperazinyl)-4-(4-fluorophenyl)-6,7-dihydro-5H-1-pyrindine]
- Inhibitory ratio (exploratory activity) (exploratory activity): 74.0%

SMILES: OCCN1CCN(c2cc(-c3ccc(F)cc3F)c3c(n2)CCCCCC3)CC1 [Example 53]
- Inhibitory ratio (exploratory activity) (exploratory activity): 68.1%

SMILES: Fc1ccc(-c2cc(N3CCNCC3)nc3c2CCCCCC3)c(F)c1 [Example 106]
- Inhibitory ratio (exploratory activity) (exploratory activity): 74.9%

SMILES: CCN1CCN(c2cc(-c3ccc(Cl)cc3)c3c(n2)CCCCC3)CC1 [Example 31]
- Inhibitory ratio (exploratory activity) (exploratory activity): 62.5%

SMILES: C=CCN1CCN(c2cc(-c3ccc(F)cc3)c3c(n2)CCCCCC3)CC1 [Example 125]
- Inhibitory ratio (exploratory activity) (exploratory activity): 57.9%

- IC50 (dopamine (D2) receptor): > 10000 nM
SMILES: Cc1nc(N2CCN(c3ccccc3)CC2)cc(-c2ccc(O)cc2)c1-c1ccc(O)cc1 [Test Compound C, 4,5-Bis-(4-hydroxyphenyl)-6-methyl-2-(4-phenylpiperazino)pyridine, reference compound]
- inhibition in vivo at 3 mg/kg [1]: 16%

SMILES: CCN1CCN(c2cc(-c3ccc(F)cc3)c3c(n2)C2CCC3C2)CC1 (stereo not shown) [Example 73]
- IC50 (serotonin (S2) receptor): 2.4 nM
- IC50 (dopamine (D2) receptor): 18 nM
- IC50 (adrenaline (α1) receptor): 4.6 nM
- inhibition in vivo at 1 mg/kg [1]: 100%

SMILES: CCN1CCN(c2cc(-c3ccccc3F)c3c(n2)CCCCC3)CC1 [Example 29]
- response vs control in vivo at 10 mg/kg [2, 4]: 296%
- response vs control in vivo at 10 mg/kg [2, 5]: 274%
- inhibition in vivo at 3 mg/kg [1]: 63%

- IC50 (dopamine (D2) receptor): > 10000 nM
SMILES: COc1ccc(-c2cc(N3CCN(c4ccccc4)CC3)nc(C)c2-c2ccc(OC)cc2)cc1 [Test Compound B, 4,5-Bis-(4-methoxyphenyl)-6-methyl-2-(4-phenylpiperazino)pyridine, reference compound]
- inhibition in vivo at 3 mg/kg [1]: 13%

SMILES: c1ccc(-c2cc(N3CCNCC3)nc3c2C2CCC3C2)cc1 (stereo not shown) [Example 107]
- Inhibitory ratio (exploratory activity) (exploratory activity): 53.2%

SMILES: CC(C)N1CCN(c2cc(-c3ccc(F)cc3)c3c(n2)CCCCCC3)CC1 [Example 121]
- response vs control in vivo at 10 mg/kg [2, 3]: 111%
- response vs control in vivo at 10 mg/kg [2, 4]: 312%
- response vs control in vivo at 10 mg/kg [2, 5]: 215%
- inhibition in vivo at 0.5 mg/kg [1]: 93%

Reference: patent publication US5021421A, “2-(1-Piperazinyl)-4-phenylcycloalkanopyridine derivatives, processes for the production thereof, and pharmaceutical composition containing the same” (Dainippon Pharmaceutical Co., Ltd., priority 1989, dated 1991)
